Test results from patent US6284461A, “Use of inhibitors in reporter assays” (priority 1998, dated 2001).
Entries after “also recorded” stand apart in the source; their conditions may differ.

What was measured:
cytosolic beta-lactamase = target: T1, cytosolic beta-lactamase (Escherichia coli, UniProt P62593); test: Inhibitor added together with CCF2/AM in CHO nuclear receptor beta-lactamase reporter cells (Example IX); format: cell-based
T1 construct: CCF2/AM read-out

beta-lactamase = settings: cited from earlier work
[1] = target: T2, cytosolic beta-lactamase reporter enzyme (Escherichia coli, UniProt P62593); test: Inhibition of cytosolic beta-lactamase reporter activity in live Jurkat cells, CMV promoter (Example II); format: cell-based; settings: 300 μM inhibitor, one hour at 37° C.
T2 construct: CCF2/AM read-out
T2 sequence (P62593 24-286 limits assumed): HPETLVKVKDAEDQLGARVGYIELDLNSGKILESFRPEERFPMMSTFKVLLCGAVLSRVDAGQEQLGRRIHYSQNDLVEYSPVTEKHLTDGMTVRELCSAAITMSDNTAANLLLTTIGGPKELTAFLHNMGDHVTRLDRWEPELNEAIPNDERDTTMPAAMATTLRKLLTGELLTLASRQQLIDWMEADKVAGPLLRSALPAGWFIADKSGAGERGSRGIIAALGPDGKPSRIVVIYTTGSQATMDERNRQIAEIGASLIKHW
Protocol: (§1) One day before the assay, CHO cells (an adherent cell line) expressing a cytosolic beta-lactamase reporter gene (WO 96/30540 to Tsien et al., published Oct. 3, 1996)) under control of a G-protein coupled receptor (GPCR) were plated in six clear-bottom 96-well microtiter plates at 75% confluency. The cells in half of the wells were stimulated overnight with agonist to the GPCR. Thus, these cells expressed high levels of the reporter enzyme encoded by the reporter gene. The other half of the cells were maintained without agonist in media having dialyzed fetal calf serum. This population is representative of cells with only background levels of beta-lactamase expression. […] After thirty minutes of incubation, the fluorescence from the wells was determined using a microtiter plate fluorimeter with excitation at 395/20nm and emission at 460/40nm and 530/30nm. The raw fluorescence emission values were corrected for the signal from wells without cells. […]
Jurkat cells (a non-adherent cell line) expressing a cytosolic beta-lactamase reporter enzyme (WO 96/30540 to Tsien et al., published Oct. 3, 1996) under the control of the constitutively active cytomegalovirus early promoter (CMV promoter) were incubated with three inhibitors: clavulanic acid, imipenem and HOB-1-70. […] Cells were treated for one hour at 37° C., after which beta-lactamase reporter activity was assessed as in Example I (FIG. 2).

[2] = target: T2, cytosolic beta-lactamase reporter enzyme; test: Irreversibility of intracellular beta-lactamase inhibition in CHO GPCR reporter cells (Example IV); format: cell-based; settings: washed
[3] = system: cytosolic beta-lactamase reporter; test: Wash-out of inhibitor from Jurkat C2 cells (M1 receptor, NF-AT beta-lactamase reporter) (Example III); format: cell-based
Protocol: as §1
These studies used a Jurkat cell clone (referred to as "C2 cells" ) containing the M1 -receptor and a cytosolic beta-lactamase reporter gene (WO 96/30540 to Tsien et al., published Oct. 3, 1996)) regulated by a NF-AT response element. […] Higher beta-lactamase activity was detected in the cells as the time after the inhibitor was washed out of the cells increased.

[4] = target: T2, cytosolic beta-lactamase reporter enzyme; test: Agonist titration in CHO GPCR reporter cells with or without inhibitor pretreatment (Example VI); format: cell-based
[5] = system: cytosolic beta-lactamase activity; test: Background versus de novo beta-lactamase activity in CHO GPCR reporter cells after inhibitor pretreatment (Example V); format: cell-based; settings: 300 μM clavulanic acid sixteen hours, washed, unstimulated, three hours
Protocol: as §1, with “expression. These unstimulated cells expressed the reporter enzyme at levels lower than in the stimulated cells. After sixteen hours, the media was removed, the stimulated cells and the unstimulated cells were washed once by replacing the culture media by […] (BSA). Because CHO cells are adherent, aspiration is the preferred method of removing culture media, which is then replaced with wash media or wash solution.” for “expression.”

[6] = system: background beta-lactamase activity (cytosolic); test: Background beta-lactamase activity in CHO reporter cells after blocking enzyme synthesis (Example I); format: cell-based; settings: 40 μg/ml cycloheximide, low and high expressing CHO cells, even after 5 hours
Protocol: as §1, with “expression. These unstimulated cells expressed the reporter enzyme at levels lower than in the stimulated cells. After sixteen hours, the media was removed, the stimulated cells and the unstimulated cells were washed once by replacing the culture media by aspiration with an equal volume of phosphate buffered saline and then treated with 40 μg/ml cycloheximide in RPMI medium 1640 with 0.1% bovine serum albumin (BSA).” for “expression.”

T1 sequence (P62593 24-286 limits assumed): as above

SMILES | ratio of fluorescence from stimulated cells over unstimulated cells (cytosolic beta-lactamase; 16.7 microμ clavulanic acid present) [fold] | improvement in signal-to-noise ratio (cytosolic beta-lactamase; 16.7 microμ clavulanic acid versus absence of inhibitor) | background (unstimulated) ratio levels (cytosolic beta-lactamase; CHO nuclear receptor reporter cells, 16.7 microμ clavulanic acid present during CCF2/AM loading) | beta-lactamase activity in stimulated cells (cytosolic beta-lactamase; agonist-stimulated CHO cells, 16.7 microμ clavulanic acid present during CCF2/AM loading) | molecules of inhibitor hydrolyzed on average before the beta-lactamase is irreversibly inactivated (beta-lactamase; beta-lactamase used in the cell based assays, source not given) | reversibility of beta-lactamase inhibition (beta-lactamase; literature (Bulychev et al. 1995; Knowles 1985)) | reduction of cytosolic beta-lactamase reporter activity [1] | persistence of inhibition of intracellular beta-lactamase reporter enzyme ([2]; 300 μM clavulanic acid pretreatment, cycloheximide) | ratio values (460/40nm over 530/30nm emission) ([2]; 300 μM clavulanic acid sixteen hours, 40 μg/ml cycloheximide, low and high expressing cells, even after five hours) | beta-lactamase activity, no-wash control ([3]; 100 microM clavulanic acid for sixteen hours, inhibitor present throughout, with or without 100 microM carbacol) | de novo beta-lactamase activity after wash-out of inhibitor ([3]; 100 microM clavulanic acid sixteen hours, washed once, 0-3 hours after wash, then 100 microM carbacol for three hours) | background beta-lactamase activity in agonist assay ([4]; CHO cells pretreated with 300 μM clavulanic acid sixteen hours, washed, three hours agonist) | signal-to-noise ratio of agonist assay ([4]; cells pretreated with clavulanic acid versus untreated) | background beta-lactamase reporter activity after pretreatment [5] | ratio values (460/40nm over 530/30nm emission) [6]
O=C(O)[C@H]1/C(=C/CO)O[C@@H]2CC(=O)N21 [clavulanic acid] | 32 | almost a three-fold improvement | 0.090±0.015 | did not change significantly | about 100 molecules | irreversible | reduced the reduced beta-lactamase activity in these cells to levels found in cells that do not have the reporter; also recorded: essentially reduced reporter beta-lactamase activity to values found for a naive Jurkat population | irreversibly inhibited; also recorded: remains inhibited for at least five hours | about 0.2 | beta-lactamase activity, both residual and synthesized de novo, was reduced | Stimulation of cells, even immediately after the wash, results in de novo synthesis of beta-lactamase that can be detected | much lower | the signal-to-noise ratio was improved | effective means of lowering the background beta-lactamase reporter activity; also recorded: readily inhibited | –
C[C@@H]1C[C@@H]([C@H](O)CC2CC(=O)NC(=O)C2)C(=O)[C@@H](C)C1 [cycloheximide] | – | – | – | – | – | – | – | – | – | – | – | – | – | – | above 0.2
C[C@@H](O)[C@H]1C(=O)N2C(C(=O)O)=C(SCCN=CN)C[C@H]12 [imipenem] | – | – | – | – | – | – | did not have a similar effect | – | – | – | – | – | – | – | –
